# Laboratory results reported in patent publication US9340590B2 (priority 2011, dated 2016).
# Like-named read-outs stand apart in the source and are kept apart here. Positions of bridges follow the written chain, without caps; N, C: chain ends. Non-standard residues stand in square brackets, D forms with d. Residues, ends and D or L forms follow the SMILES beside them. 1Nal = N[C@@H](Cc1cccc2ccccc12)C(=O)O; Cha = N[C@@H](CC1CCCCC1)C(=O)O; Lys(Me) = CNCCCC[C@H](N)C(=O)O; Pra = C#CC[C@H](N)C(=O)O
# What was measured:
# Test in all cases: cell-based
# hNav1.7 = hNav1.7 (Homo sapiens, UniProt Q15858); format: cell-based; settings: IonWorks Quattro, read-out: IWQ Use Nav1.7
# Sequence of hNav1.7 (Q15858 whole entry, looked up): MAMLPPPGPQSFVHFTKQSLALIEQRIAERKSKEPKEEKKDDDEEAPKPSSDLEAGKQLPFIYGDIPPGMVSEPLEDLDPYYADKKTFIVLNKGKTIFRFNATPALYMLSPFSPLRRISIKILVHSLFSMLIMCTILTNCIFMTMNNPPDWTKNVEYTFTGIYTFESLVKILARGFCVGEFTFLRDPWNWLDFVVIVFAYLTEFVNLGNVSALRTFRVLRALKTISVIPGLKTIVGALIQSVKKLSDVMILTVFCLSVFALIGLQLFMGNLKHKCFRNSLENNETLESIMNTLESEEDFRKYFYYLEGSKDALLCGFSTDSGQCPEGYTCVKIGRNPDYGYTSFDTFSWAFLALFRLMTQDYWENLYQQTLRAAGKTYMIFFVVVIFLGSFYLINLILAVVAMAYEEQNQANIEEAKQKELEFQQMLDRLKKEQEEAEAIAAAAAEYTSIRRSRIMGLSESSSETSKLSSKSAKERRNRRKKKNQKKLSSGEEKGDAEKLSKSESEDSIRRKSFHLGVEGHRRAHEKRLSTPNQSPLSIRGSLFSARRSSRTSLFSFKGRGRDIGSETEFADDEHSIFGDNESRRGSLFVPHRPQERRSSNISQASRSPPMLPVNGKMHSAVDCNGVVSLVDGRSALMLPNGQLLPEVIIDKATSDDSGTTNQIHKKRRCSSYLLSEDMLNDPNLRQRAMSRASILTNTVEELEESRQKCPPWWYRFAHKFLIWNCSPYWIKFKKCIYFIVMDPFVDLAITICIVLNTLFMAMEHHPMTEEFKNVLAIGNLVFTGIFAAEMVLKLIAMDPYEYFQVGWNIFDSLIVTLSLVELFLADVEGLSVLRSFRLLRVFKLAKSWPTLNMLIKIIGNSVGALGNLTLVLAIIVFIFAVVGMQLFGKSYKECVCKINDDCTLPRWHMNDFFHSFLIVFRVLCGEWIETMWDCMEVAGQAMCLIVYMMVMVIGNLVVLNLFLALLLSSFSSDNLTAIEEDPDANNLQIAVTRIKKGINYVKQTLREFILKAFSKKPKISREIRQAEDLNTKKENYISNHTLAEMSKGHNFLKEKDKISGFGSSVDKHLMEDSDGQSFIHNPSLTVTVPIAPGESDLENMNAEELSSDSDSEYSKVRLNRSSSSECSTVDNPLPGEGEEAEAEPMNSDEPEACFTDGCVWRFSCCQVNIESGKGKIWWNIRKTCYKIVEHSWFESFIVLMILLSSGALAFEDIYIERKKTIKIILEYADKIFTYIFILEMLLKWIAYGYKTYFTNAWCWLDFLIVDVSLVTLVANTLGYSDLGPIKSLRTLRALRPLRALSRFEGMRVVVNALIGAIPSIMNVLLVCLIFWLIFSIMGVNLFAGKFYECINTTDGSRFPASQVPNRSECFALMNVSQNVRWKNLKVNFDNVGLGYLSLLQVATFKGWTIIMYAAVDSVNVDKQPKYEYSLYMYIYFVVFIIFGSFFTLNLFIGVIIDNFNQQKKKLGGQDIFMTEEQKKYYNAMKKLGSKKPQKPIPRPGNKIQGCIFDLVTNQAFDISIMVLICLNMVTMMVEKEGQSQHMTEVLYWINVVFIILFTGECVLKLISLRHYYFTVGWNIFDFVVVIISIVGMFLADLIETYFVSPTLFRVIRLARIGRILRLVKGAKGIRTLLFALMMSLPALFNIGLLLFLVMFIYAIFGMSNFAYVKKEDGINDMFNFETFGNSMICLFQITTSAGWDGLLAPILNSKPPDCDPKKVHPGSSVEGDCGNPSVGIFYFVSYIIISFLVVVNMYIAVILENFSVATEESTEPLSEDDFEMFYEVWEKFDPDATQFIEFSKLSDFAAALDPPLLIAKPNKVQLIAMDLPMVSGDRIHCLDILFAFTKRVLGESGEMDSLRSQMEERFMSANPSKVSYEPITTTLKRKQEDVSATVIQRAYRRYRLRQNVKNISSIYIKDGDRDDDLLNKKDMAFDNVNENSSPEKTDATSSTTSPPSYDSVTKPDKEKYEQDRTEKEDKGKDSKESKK
# hNav1.5 = hNav1.5 (Homo sapiens, UniProt Q14524); settings: IonWorks Quattro, read-out: IWQ Use Nav1.5
# Sequence of hNav1.5 (Q14524 whole entry, looked up): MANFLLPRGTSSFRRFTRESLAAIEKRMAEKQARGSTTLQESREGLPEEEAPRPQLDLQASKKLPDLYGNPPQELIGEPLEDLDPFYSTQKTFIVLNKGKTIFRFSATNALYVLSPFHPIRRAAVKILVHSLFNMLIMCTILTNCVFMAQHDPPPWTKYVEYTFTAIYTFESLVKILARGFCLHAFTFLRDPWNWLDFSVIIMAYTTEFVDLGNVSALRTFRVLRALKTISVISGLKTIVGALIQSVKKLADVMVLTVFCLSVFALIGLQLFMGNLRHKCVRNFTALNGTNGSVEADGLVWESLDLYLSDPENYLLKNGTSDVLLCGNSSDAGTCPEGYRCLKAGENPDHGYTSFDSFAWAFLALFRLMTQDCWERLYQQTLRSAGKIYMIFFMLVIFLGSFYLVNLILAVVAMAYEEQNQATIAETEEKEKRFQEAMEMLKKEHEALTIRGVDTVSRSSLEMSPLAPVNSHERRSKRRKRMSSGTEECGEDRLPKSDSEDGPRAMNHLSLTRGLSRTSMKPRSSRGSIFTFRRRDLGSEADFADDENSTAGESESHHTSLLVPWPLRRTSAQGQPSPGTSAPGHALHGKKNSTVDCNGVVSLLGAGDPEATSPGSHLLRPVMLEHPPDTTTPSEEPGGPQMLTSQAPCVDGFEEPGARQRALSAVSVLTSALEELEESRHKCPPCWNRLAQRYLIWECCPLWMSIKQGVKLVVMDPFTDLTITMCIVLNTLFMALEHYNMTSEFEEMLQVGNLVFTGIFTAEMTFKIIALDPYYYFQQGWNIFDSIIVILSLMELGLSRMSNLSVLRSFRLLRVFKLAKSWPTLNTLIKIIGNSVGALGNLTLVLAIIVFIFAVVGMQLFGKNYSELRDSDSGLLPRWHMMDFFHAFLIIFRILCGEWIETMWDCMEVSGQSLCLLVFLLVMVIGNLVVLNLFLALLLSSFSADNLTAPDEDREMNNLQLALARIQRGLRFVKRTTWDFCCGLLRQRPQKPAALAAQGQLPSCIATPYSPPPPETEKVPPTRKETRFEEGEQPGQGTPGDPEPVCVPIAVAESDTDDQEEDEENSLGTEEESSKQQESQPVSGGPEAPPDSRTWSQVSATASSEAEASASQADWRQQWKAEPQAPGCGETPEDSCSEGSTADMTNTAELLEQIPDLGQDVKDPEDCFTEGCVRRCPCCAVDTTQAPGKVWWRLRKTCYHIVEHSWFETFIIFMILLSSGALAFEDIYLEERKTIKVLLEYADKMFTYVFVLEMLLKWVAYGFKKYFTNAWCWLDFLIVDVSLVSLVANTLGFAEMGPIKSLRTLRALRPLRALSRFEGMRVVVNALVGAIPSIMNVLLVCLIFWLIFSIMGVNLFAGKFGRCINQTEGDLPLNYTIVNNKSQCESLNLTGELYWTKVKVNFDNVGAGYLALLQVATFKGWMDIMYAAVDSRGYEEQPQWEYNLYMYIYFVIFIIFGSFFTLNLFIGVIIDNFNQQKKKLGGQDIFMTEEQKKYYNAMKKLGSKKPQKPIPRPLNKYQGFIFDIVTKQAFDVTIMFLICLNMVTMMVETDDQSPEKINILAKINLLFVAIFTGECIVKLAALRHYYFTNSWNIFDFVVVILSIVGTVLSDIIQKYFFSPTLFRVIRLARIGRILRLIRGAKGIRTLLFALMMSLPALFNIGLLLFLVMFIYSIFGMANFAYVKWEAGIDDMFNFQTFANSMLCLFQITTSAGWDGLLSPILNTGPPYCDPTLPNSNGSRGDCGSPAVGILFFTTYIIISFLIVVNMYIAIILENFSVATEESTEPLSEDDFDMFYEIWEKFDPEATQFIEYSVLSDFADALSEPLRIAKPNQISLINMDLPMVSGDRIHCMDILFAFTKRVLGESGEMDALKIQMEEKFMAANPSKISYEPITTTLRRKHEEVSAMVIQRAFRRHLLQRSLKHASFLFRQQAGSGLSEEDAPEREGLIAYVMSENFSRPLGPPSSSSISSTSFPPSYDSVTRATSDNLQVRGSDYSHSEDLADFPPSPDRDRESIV
# hNav1.3 = hNav1.3 (Homo sapiens, UniProt Q9NY46); settings: IonWorks Quattro, read-out: IWQ Use Nav1.3
smiles,measurement,setting,value
"CC[C@H](C)[C@@H]1NC(=O)[C@@H]2CSSC[C@@H]3NC(=O)[C@H](C(C)C)NC(=O)[C@H](CC(C)C)NC(=O)[C@H](CC(N)=O)NC(=O)[C@@H]4CCCN4C(=O)[C@H](CCCNC(=N)N)NC(=O)[C@H](CSSC[C@H](NC(=O)[C@@H](N)CC(=O)O)C(=O)N[C@@H](CC(C)C)C(=O)NCC(=O)N[C@@H](C)C(=O)N[C@@H](CCSC)C(=O)N[C@@H](CCCNC(=N)N)C(=O)N[C@@H](CCCCN)C(=O)N2)NC(=O)[C@H](CSSC[C@@H](C(=O)N[C@@H](CCCCN)C(=O)N[C@@H](Cc2ccc(O)cc2)C(=O)N[C@H](C(=O)N[C@@H](Cc2ccccc2)C(N)=O)C(C)C)NC(=O)[C@H](Cc2c[nH]c4ccccc24)NC(=O)[C@H](CCCCNC)NC(=O)[C@H](Cc2c[nH]cn2)NC(=O)[C@H]([C@@H](C)O)NC(=O)[C@H](CCCNC(=N)N)NC(=O)[C@H](CO)NC3=O)NC(=O)[C@H](CCCCN)NC(=O)[C@H](CC(=O)O)NC(=O)[C@H](CC(N)=O)NC(=O)[C@H](CC(=O)O)NC(=O)[C@@H]2CCCN2C1=O [compound 771] (H-DCLGAMRKCIPDNDKCCRPNLVCSRTH[Lys(Me)]WCKYVF-NH2; disulfide 2-17, 9-23, 16-30)",IC50,"hNav1.7; use-dependent block, hNav1.7",1600 nM
same,IC50,"hNav1.5; use-dependent block, hNav1.5",40100 nM
same,IC50,"hNav1.3; use-dependent block, hNav1.3",1800 nM
"C#CC[C@@H]1NC(=O)[C@H](CC(=O)O)NC(=O)[C@H](CC(N)=O)NC(=O)[C@H](CC(=O)O)NC(=O)[C@@H]2CCCN2C(=O)[C@H]([C@@H](C)CC)NC(=O)[C@@H]2CSSC[C@@H]3NC(=O)[C@H](C(C)C)NC(=O)[C@H](CC(C)C)NC(=O)[C@H](CC(N)=O)NC(=O)[C@@H]4CCCN4C(=O)[C@H](CCCNC(=N)N)NC(=O)[C@H](CSSC[C@H](NC(=O)[C@@H](N)CC(=O)O)C(=O)N[C@@H](CC(C)C)C(=O)NCC(=O)N[C@@H](Cc4ccccc4)C(=O)N[C@@H](Cc4ccccc4)C(=O)N[C@@H](CCCNC(=N)N)C(=O)N[C@@H](CCCCN)C(=O)N2)NC(=O)[C@H](CSSC[C@@H](C(=O)N[C@@H](CCCCN)C(=O)N[C@@H](Cc2ccc(O)cc2)C(=O)N[C@H](C(=O)N[C@@H](Cc2ccccc2)C(N)=O)C(C)C)NC(=O)[C@H](Cc2c[nH]c4ccccc24)NC(=O)[C@H](CCCCN)NC(=O)[C@H](Cc2c[nH]cn2)NC(=O)[C@H]([C@@H](C)O)NC(=O)[C@H](CCCNC(=N)N)NC(=O)[C@H](CO)NC3=O)NC1=O [compound 736] (H-DCLGFFRKCIPDND[Pra]CCRPNLVCSRTHKWCKYVF-NH2; disulfide 2-17, 9-23, 16-30)",IC50,"hNav1.7; use-dependent block, hNav1.7",> 5000 nM
same,IC50,"hNav1.5; use-dependent block, hNav1.5",32600 nM
same,IC50,"hNav1.3; use-dependent block, hNav1.3",> 5000 nM
"CC[C@H](C)[C@@H]1NC(=O)[C@@H]2CSSC[C@@H]3NC(=O)[C@H](C(C)C)NC(=O)[C@H](CC(C)C)NC(=O)[C@H](CC(N)=O)NC(=O)[C@@H]4CCCN4C(=O)[C@H](CCCNC(=N)N)NC(=O)[C@H](CSSC[C@H](NC(=O)[C@@H](N)CC(=O)O)C(=O)N[C@@H](CC(C)C)C(=O)NCC(=O)N[C@@H](Cc4ccccc4)C(=O)N[C@@H](CCSC)C(=O)N[C@@H](CCCNC(=N)N)C(=O)N[C@@H](CCCCN)C(=O)N2)NC(=O)[C@H](CSSC[C@@H](C(=O)N[C@@H](CCCCN)C(=O)N[C@@H](Cc2ccc(O)cc2)C(=O)N[C@H](C(=O)N[C@@H](Cc2cccc4ccccc24)C(=O)N[C@@H](Cc2c[nH]c4ccccc24)C(N)=O)C(C)C)NC(=O)[C@H](Cc2c[nH]c4ccccc24)NC(=O)[C@H](CCCCN)NC(=O)[C@H](Cc2c[nH]cn2)NC(=O)[C@H]([C@@H](C)O)NC(=O)[C@H](CCCNC(=N)N)NC(=O)[C@H](CO)NC3=O)NC(=O)[C@H](CCCCN)NC(=O)[C@H](CC(=O)O)NC(=O)[C@H](CC(N)=O)NC(=O)[C@H](CC(=O)O)NC(=O)[C@@H]2CCCN2C1=O [compound 138] (H-DCLGFMRKCIPDNDKCCRPNLVCSRTHKWCKYV[1Nal]W-NH2; disulfide 2-17, 9-23, 16-30)",IC50,"hNav1.7; use-dependent block, hNav1.7",130 nM
same,IC50,"hNav1.5; use-dependent block, hNav1.5",2570 nM
same,IC50,"hNav1.3; use-dependent block, hNav1.3",70 nM
"CC[C@H](C)[C@@H]1NC(=O)[C@@H]2CSSC[C@@H]3NC(=O)[C@H](C(C)C)NC(=O)[C@H](CC(C)C)NC(=O)[C@H](CC(N)=O)NC(=O)[C@@H]4CCCN4C(=O)[C@H](CCCNC(=N)N)NC(=O)[C@H](CSSC[C@H](NC(=O)[C@@H](N)CC(=O)O)C(=O)N[C@@H](CC(C)C)C(=O)NCC(=O)N[C@@H](Cc4ccccc4)C(=O)N[C@@H](Cc4ccccc4)C(=O)N[C@@H](CCCNC(=N)N)C(=O)N[C@@H](CCCCN)C(=O)N2)NC(=O)[C@H](CSSC[C@@H](C(=O)N[C@@H](CCCCN)C(=O)N[C@@H](Cc2ccc(O)cc2)C(=O)N[C@H](C(=O)N[C@@H](Cc2cccc4ccccc24)C(N)=O)C(C)C)NC(=O)[C@H](Cc2c[nH]c4ccccc24)NC(=O)[C@H](CCCCN)NC(=O)[C@H](Cc2c[nH]cn2)NC(=O)[C@H]([C@@H](C)O)NC(=O)[C@H](CCCNC(=N)N)NC(=O)[C@H](CO)NC3=O)NC(=O)[C@H](CCCCN)NC(=O)[C@H](CC(=O)O)NC(=O)[C@H](CC(N)=O)NC(=O)[C@H](CC(=O)O)NC(=O)[C@@H]2CCCN2C1=O [compound 561] (H-DCLGFFRKCIPDNDKCCRPNLVCSRTHKWCKYV[1Nal]-NH2; disulfide 2-17, 9-23, 16-30)",IC50,hNav1.7; use-dependent block,11 nM
same,IC50,hNav1.5; use-dependent block,2200 nM
same,IC50,hNav1.3; use-dependent block,7 nM
"CC[C@H](C)[C@@H]1NC(=O)[C@@H]2CSSC[C@@H]3NC(=O)[C@H](C(C)C)NC(=O)[C@H](CC(C)C)NC(=O)[C@H](CC(N)=O)NC(=O)[C@@H]4CCCN4C(=O)[C@H](CCCNC(=N)N)NC(=O)[C@H](CSSC[C@H](NC(=O)[C@@H](N)CC(=O)O)C(=O)N[C@@H](CC(C)C)C(=O)NCC(=O)N[C@@H](Cc4ccccc4)C(=O)N[C@@H](CCSC)C(=O)N[C@@H](CCCNC(=N)N)C(=O)N[C@@H](CCCCN)C(=O)N2)NC(=O)[C@H](CSSC[C@@H](C(=O)N[C@@H](CCCCN)C(=O)N[C@@H](Cc2ccc(O)cc2)C(=O)N[C@H](C(=O)N[C@@H](CC2CCCCC2)C(N)=O)C(C)C)NC(=O)[C@H](Cc2c[nH]c4ccccc24)NC(=O)[C@H](CCCCN)NC(=O)[C@H](Cc2c[nH]cn2)NC(=O)[C@H]([C@@H](C)O)NC(=O)[C@H](CCCNC(=N)N)NC(=O)[C@H](CO)NC3=O)NC(=O)[C@H](CCCCN)NC(=O)[C@H](CC(=O)O)NC(=O)[C@H](CC(N)=O)NC(=O)[C@H](CC(=O)O)NC(=O)[C@@H]2CCCN2C1=O [compound 405] (H-DCLGFMRKCIPDNDKCCRPNLVCSRTHKWCKYV[Cha]-NH2; disulfide 2-17, 9-23, 16-30)",IC50,"hNav1.7; use-dependent, […]",20 nM
same,IC50,"hNav1.5; use-dependent, […]",5530 nM
same,IC50,"hNav1.3; use-dependent, […]",10 nM
"CC[C@H](C)[C@@H]1NC(=O)[C@@H]2CSSC[C@@H]3NC(=O)[C@H](C(C)C)NC(=O)[C@H](CC(C)C)NC(=O)[C@H](CC(N)=O)NC(=O)[C@@H]4CCCN4C(=O)[C@H](CCCNC(=N)N)NC(=O)[C@H](CSSC[C@H](NC(=O)[C@@H](N)CC(=O)O)C(=O)N[C@@H](CC(C)C)C(=O)NCC(=O)N[C@@H](Cc4ccccc4)C(=O)N[C@@H](CCSC)C(=O)N[C@@H](CCCNC(=N)N)C(=O)N[C@@H](CCCCN)C(=O)N2)NC(=O)[C@H](CSSC[C@@H](C(=O)N[C@@H](CCCCN)C(=O)N[C@@H](Cc2ccc(O)cc2)C(=O)N[C@H](C(=O)N[C@@H](Cc2ccccc2)C(N)=O)C(C)C)NC(=O)[C@H](Cc2c[nH]c4ccccc24)NC(=O)[C@H](CCCCN)NC(=O)[C@H](Cc2cnc[nH]2)NC(=O)[C@H](Cc2c[nH]c4ccccc24)NC(=O)[C@H](CCCNC(=N)N)NC(=O)[C@H](CO)NC3=O)NC(=O)[C@H](CCCCN)NC(=O)[C@H](CC(=O)O)NC(=O)[C@H](CC(N)=O)NC(=O)[C@H](CC(=O)O)NC(=O)[C@@H]2CCCN2C1=O [compound 178] (H-DCLGFMRKCIPDNDKCCRPNLVCSRWHKWCKYVF-NH2; disulfide 2-17, 9-23, 16-30)",IC50,"hNav1.7; Table 22, use, […]",30 nM
same,IC50,"hNav1.5; Table 22, use, […]",5840 nM
same,IC50,"hNav1.3; Table 22, use, […]",20 nM
"CC[C@H](C)[C@@H]1NC(=O)[C@@H]2CSSC[C@@H]3NC(=O)[C@H](C(C)C)NC(=O)[C@H](CC(C)C)NC(=O)[C@H](CC(N)=O)NC(=O)[C@@H]4CCCN4C(=O)[C@H](CCCNC(=N)N)NC(=O)[C@H](CSSC[C@H](NC(=O)[C@@H](N)CC(=O)O)C(=O)N[C@@H](CC(C)C)C(=O)NCC(=O)N[C@@H](Cc4ccccc4)C(=O)N[C@@H](CCSC)C(=O)N[C@@H](CCCNC(=N)N)C(=O)N[C@@H](CCCCN)C(=O)N2)NC(=O)[C@H](CSSC[C@@H](C(=O)N[C@@H](CCCCN)C(=O)N[C@@H](Cc2ccc(O)cc2)C(=O)N[C@H](C(=O)N[C@@H](Cc2ccccc2)C(N)=O)C(C)C)NC(=O)[C@H](Cc2c[nH]c4ccccc24)NC(=O)[C@H](CCCCN)NC(=O)[C@H](Cc2c[nH]cn2)NC(=O)[C@@H]2CCCN2C(=O)[C@H](CCCNC(=N)N)NC(=O)[C@H](CO)NC3=O)NC(=O)[C@H](CCCCN)NC(=O)[C@H](CC(=O)O)NC(=O)[C@H](CC(N)=O)NC(=O)[C@H](CC(=O)O)NC(=O)[C@@H]2CCCN2C1=O [compound 345] (H-DCLGFMRKCIPDNDKCCRPNLVCSRPHKWCKYVF-NH2; disulfide 2-17, 9-23, 16-30)",IC50,"hNav1.7; Table 22, use, […]",180 nM
same,IC50,"hNav1.5; Table 22, use, […]",6650 nM
same,IC50,"hNav1.3; Table 22, use, […]",160 nM
